In PubChem BioAssay (NCI):
Where “and” joins values, the source holds several entries; their conditions need not be identical. Equal values may be shown once.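 Cells were grown in 96-well plates and exposed to each compound for 48 hours at five concentrations; endpoints were interpolated linearly between bracketing concentrations, or set to the highest concentration if not reached. Here, GI50 denotes the concentration required for 50% inhibition of growth. At the TGI there is no net growth.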

Tests used:
Assay in all cases: DTP human tumour cell line panel, 48 h
[1] = test system: CAKI-1 renal
[2] = test system: HCT-116 colon
[3] = test system: HOP-62 NSCLC
[4] = test system: LOX IMVI melanoma
[5] = test system: NCI-H23 lung
[6] = test system: NCI-H460 lung
[7] = test system: OVCAR-3 ovarian
[8] = test system: SK-MEL-2 melanoma
[9] = test system: SK-MEL-28 melanoma
[10] = test system: PC-3 prostate
[11] = test system: T-47D breast
[12] = test system: SR leukemia

Row | SMILES | GI50 [1] [µM] | TGI [1] [µM] | GI50 [2] | GI50 [3] [µM] | TGI [3] [µM] | GI50 [4] | TGI [4] [µM] | GI50 [5] [µM] | TGI [5] [µM] | GI50 [6] | TGI [6] [µM] | GI50 [7] | TGI [7] [µM] | TGI [8] [µM] | GI50 [9] [µM] | TGI [9] [µM] | TGI [2] [µM] | TGI [10] [µM] | TGI [11] [µM] | TGI [12] [µM]
1 | COc1cc([C@@H]2c3cc4c(cc3C[C@H]3COC(=O)[C@@H]32)OCO4)cc(OC)c1OC | 0.00463 | 1.72 | 0.0026 µM and 0.00848 µM | 0.00577 | 40.5 | 0.00281 µM and 0.005 µM | > 50 | 0.00428 | 3.52 | 0.00327 µM and < 0.005 µM | < 0.005 | 0.00424 µM and 0.00911 µM | 0.0745 | > 2.32 | 0.00645 | > 50 | – | – | – | –
2 | N#CSCc1cccc(Nc2cc(=O)[nH]c(=O)[nH]2)c1 | – | > 100 | – | – | > 100 | – | > 100 | – | > 100 | – | > 100 | – | > 100 | > 100 | – | > 100 | > 100 | > 100 | > 100 | –
3 | O=C(O)CNC(=O)c1ccc([As](=O)(O)O)cc1 | – | > 100 | – | – | > 100 | – | > 100 | – | > 100 | – | > 100 | – | > 100 | > 100 | – | > 100 | > 100 | > 100 | > 100 | –
4 | CCOC(=O)C1CC(O)C(=O)N1C (centres undefined) | – | > 100 | – | – | > 100 | – | > 100 | – | > 100 | – | – | – | > 100 | > 100 | – | > 100 | > 100 | > 100 | > 100 | > 100
5 | Brc1ccc2c3c1[C@@H]1O[C@@H]1c1cccc(c1-3)[C@@H]1O[C@H]21 | – | 26.4 | – | – | 43.1 | – | 6.86 | – | 33.7 | – | – | – | 52.6 | > 71.5 | – | 50.3 | 45.7 | > 71.7 | 45 | > 100
6 | Cc1ccc(C2=Nc3c(c(C)nn3-c3ccccc3)N=C(C(=O)O)C2)cc1 | – | > 10 | – | – | > 10 | – | > 10 | – | > 10 | – | > 10 | – | > 10 | > 10 | – | > 10 | > 10 | > 10 | > 10 | –
7 | CC1=CC(=O)N(n2c(C)n[nH]c2=O)C1=O | – | > 100 | – | – | – | – | > 100 | – | > 100 | – | > 100 | – | > 100 | > 100 | – | – | > 100 | > 100 | > 100 | > 100
8 | O=c1c2cc(I)ccc2[nH]c(=S)n1Cc1ccccc1 | – | – | – | – | 63 | – | > 100 | – | > 100 | – | > 100 | – | > 100 | 56 | – | > 100 | > 100 | > 100 | > 100 | > 100
9 | CC(=O)Nc1ccc(Cl)c(Cl)c1 | – | – | – | – | > 100 | – | > 100 | – | > 100 | – | > 100 | – | > 100 | – | – | > 100 | > 100 | – | – | > 100
10 | Cc1cc(O)cc(O)c1N=Nc1ccc([N+](=O)[O-])cc1 | – | 38.9 | – | – | > 100 | – | 84.8 | – | 52 | – | 61 | – | > 100 | 75.4 | – | 61 | 15.4 | > 100 | > 100 | –
11 | CC1=C2c3ccccc3N(C(=O)/C=C/C(=O)O)[C@H]2[C@H]2C(=O)OC(=O)[C@H]2C1 | – | > 10 | – | – | > 10 | – | – | – | > 10 | – | > 10 | – | > 10 | > 10 | – | > 10 | > 10 | > 10 | > 10 | > 10
12 | CC(C)=CC1C(C(=O)O)C1(C)C (centres undefined) | – | > 750 | – | – | > 750 | – | > 750 | – | > 750 | – | > 750 | – | > 750 | > 750 | – | > 750 | > 750 | – | – | –
13 | O=C1C(Cl)N(c2ccccc2)C1c1c[nH]c2ccccc12 (centres undefined) | – | – | – | – | > 100 | – | – | – | > 100 | – | > 100 | – | > 100 | > 100 | – | > 100 | > 100 | – | – | > 100
14 | CC(C)/C(Cl)=N\OC(=O)NNc1ccccc1 | – | 28.2 | – | – | > 100 | – | 36.9 | – | > 100 | – | > 100 | – | > 100 | > 100 | – | > 100 | > 100 | > 100 | 40.1 | –
15 | Cc1ccc(C(=O)Nc2ccc(CP(=O)(O)O)cc2)cc1NC(=O)c1cccc(NC(=O)Nc2cccc(C(=O)Nc3cc(C(=O)Nc4ccc(CP(=O)(O)O)cc4)ccc3C)c2)c1 | – | > 100 | – | – | > 100 | – | > 100 | – | > 100 | – | > 100 | – | > 100 | > 100 | – | > 100 | > 100 | > 100 | > 100 | –
16 | Cc1cc2cccc(Cl)c2nc1C(=O)c1ccccc1 | – | > 100 | – | – | > 100 | – | > 100 | – | > 100 | – | – | – | > 100 | > 100 | – | > 100 | > 100 | – | – | > 100
17 | Cc1oc2nc(N(C)C)n3nnnc3c2c1C | – | > 100 | – | – | – | – | > 100 | – | > 100 | – | – | – | – | – | – | > 100 | > 100 | – | > 100 | –
18 | Cc1nc2cc(C(F)(F)F)ccc2[nH]c1=O | – | > 100 | – | – | > 100 | – | > 100 | – | > 100 | – | > 100 | – | > 100 | > 100 | – | > 100 | > 100 | > 100 | > 100 | –
19 | CC(C)c1c(P(=O)(c2ccccc2)c2ccccc2)n(C)c2ccccc12 | – | – | – | – | > 100 | – | > 100 | – | > 100 | – | > 100 | – | > 100 | > 100 | – | > 100 | > 100 | > 100 | > 100 | > 100
20 | COC(=O)C1CC(C=[N+](C)C)=C(SC)N1 (centres undefined) | – | > 100 | – | – | > 100 | – | – | – | > 100 | – | > 100 | – | > 100 | > 100 | – | > 100 | > 100 | > 100 | > 100 | > 100
21 | COc1cc2c(cc1OC)C(=O)/C(=C/c1cc(C)c(O)c(C)c1)C2 | – | > 100 | – | – | > 100 | – | > 47.3 | – | > 100 | – | > 100 | – | > 100 | – | – | > 100 | – | > 100 | > 100 | > 100
